“And” between values parts separate entries of the source, which are not always exact repeats. Identical values can stand only once. Inconclusive results and toxic doses are left out. Cut-off read from the data, not from the text of the source: active = T/C of 150% or more; inactive = T/C below 125%.
System: L1210 leukemia ip in BDF1 mice, survival T/C
Test: NCI In Vivo Anticancer Drug Screen. Data for tumor model L1210 Leukemia (intraperitoneal) in B6D2F1 (BDF1) mice
Settings: endpoint: mean survival time, higher = longer survival
Outline: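 Tumor cells were implanted, animals were treated, and survival was followed. The result divides the treated measurement by the vehicle-control measurement.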

[1] = dose: 100.0 mg/kg/injection, schedule: Q04DX002 (ip), vehicle: Klucel (hydroxypropylcellulose) (HPC)
[2] = dose: 200.0 mg/kg/injection, schedule: Q04DX002 (ip), vehicle: Klucel (hydroxypropylcellulose) (HPC)
[3] = dose: 400.0 mg/kg/injection, schedule: Q04DX002 (ip), vehicle: Klucel (hydroxypropylcellulose) (HPC)
[4] = dose: 100.0 mg/kg/injection, schedule: Q01DX001 (ip), vehicle: saline
[5] = dose: 200.0 mg/kg/injection, schedule: Q01DX001 (ip), vehicle: saline
[6] = dose: 100.0 mg/kg/injection, schedule: Q04DX003 (ip), vehicle: Klucel (hydroxypropylcellulose) (HPC)
[7] = dose: 200.0 mg/kg/injection, schedule: Q04DX003 (ip), vehicle: Klucel (hydroxypropylcellulose) (HPC)
[8] = dose: 400.0 mg/kg/injection, schedule: Q04DX003 (ip), vehicle: Klucel (hydroxypropylcellulose) (HPC)

Measured: T/C

Cc1onc(-c2ccccc2Cl)c1-c1nc2ccccc2c(=O)o1
inactive: [1] 93 % of control | [2] 93 % of control | [3] 96 % of control

CC(=O)CC(=O)NCCN1CCN(C(=O)CC(C)=O)CC1
inactive: [4] 93 % of control | [5] 101 % of control | dose: 400.0 mg/kg/injection, schedule: Q01DX001 (ip), vehicle: saline 98 % of control

CC(=O)N(CCN(C)C)Cc1ccccc1
inactive: [4] 98 % of control | [5] 98 % of control

CCO/C(C)=N/OC(=O)c1ccccc1
inactive: [1] 94 % of control | [2] 110 % of control | [3] 94 % of control

O=C(Nc1ccc(F)c([N+](=O)[O-])c1)Nc1cc([N+](=O)[O-])ccc1F
inactive: [6] 96 % of control | [7] 93 % of control | [8] 101 % of control

CCCCNC(=O)C1C=C2c3cccc4c3C(CN4)CC2N(C)C1 (stereo unspecified)
inactive: dose: 25.0 mg/kg/injection, schedule: Q01DX009 (ip), vehicle: saline with Tween-80 87 % of control | dose: 50.0 mg/kg/injection, schedule: Q01DX009 (ip), vehicle: saline with Tween-80 89 % of control

CCC[CH2][Sn]1([CH2]CCC)[O]CC2(CCCCC2)C[O]1
inactive: dose: 2.5 mg/kg/injection, schedule: Q04DX002 (ip), vehicle: saline + alcohol 94 % of control and 102 % of control | dose: 5.0 mg/kg/injection, schedule: Q04DX002 (ip), vehicle: saline + alcohol 105 % of control and 118 % of control | dose: 10.0 mg/kg/injection, schedule: Q04DX002 (ip), vehicle: saline + alcohol 105 % of control | dose: 20.0 mg/kg/injection, schedule: Q04DX002 (ip), vehicle: saline + alcohol 93 % of control and 105 % of control

Cc1ccc2cc(N(C)C)ccc2[n+]1C
inactive: dose: 3.13 mg/kg/injection, schedule: Q04DX003 (ip), vehicle: saline 101 % of control | dose: 6.25 mg/kg/injection, schedule: Q04DX003 (ip), vehicle: saline 106 % of control | dose: 12.5 mg/kg/injection, schedule: Q04DX003 (ip), vehicle: saline 96 % of control and 109 % of control

CC1OCC(C)(CO)CO1 (stereo unspecified)
inactive: dose: 50.0 mg/kg/injection, schedule: Q01DX009 (ip), vehicle: saline 102 % of control | dose: 100.0 mg/kg/injection, schedule: Q01DX009 (ip), vehicle: saline 101 % of control | dose: 100.0 mg/kg/injection, schedule: Q04DX003 (ip), vehicle: acetone 106 % of control | dose: 200.0 mg/kg/injection, schedule: Q01DX009 (ip), vehicle: saline 98 % of control | dose: 200.0 mg/kg/injection, schedule: Q04DX003 (ip), vehicle: acetone 122 % of control | dose: 400.0 mg/kg/injection, schedule: Q04DX003 (ip), vehicle: acetone 111 % of control

COC(=O)C(Cc1ccccc1)NC(=O)C(C)NC(=O)OCc1ccccc1 (stereo unspecified)
inactive: [1] 105 % of control | dose: 130.0 mg/kg/injection, schedule: Q04DX002 (ip), vehicle: Klucel (hydroxypropylcellulose) (HPC) 100 % of control and 86 % of control | [2] 100 % of control | dose: 300.0 mg/kg/injection, schedule: Q04DX002 (ip), vehicle: Klucel (hydroxypropylcellulose) (HPC) 100 % of control and 103 % of control | [3] 108 % of control

Clc1ccc(C2CC3(CC(c4ccc(Cl)cc4)N2)SSC2(CC(c4ccc(Cl)cc4)NC(c4ccc(Cl)cc4)C2)S3)cc1 (stereo unspecified)
inactive: dose: 100.0 mg/kg/injection, schedule: Q01DX009 (ip), vehicle: Klucel (hydroxypropylcellulose) (HPC) 98 % of control | dose: 200.0 mg/kg/injection, schedule: Q01DX009 (ip), vehicle: Klucel (hydroxypropylcellulose) (HPC) 108 % of control | dose: 400.0 mg/kg/injection, schedule: Q01DX009 (ip), vehicle: Klucel (hydroxypropylcellulose) (HPC) 98 % of control

CCCCSC1=CC(=O)c2ccccc2C1=O
inactive: dose: 12.5 mg/kg/injection, schedule: Q04DX003 (ip), vehicle: Klucel (hydroxypropylcellulose) (HPC) 104 % of control

COc1ccc(NC(=O)O/N=C2\CN(S(=O)(=O)c3ccc(C)cc3)CCc3ccccc32)cc1
inactive: [6] 91 % of control | [7] 94 % of control | [8] 96 % of control

O=[N+]([O-])c1cccc(CO)c1-c1c(CO)cccc1[N+](=O)[O-]
inactive: dose: 100.0 mg/kg/injection, schedule: Q01DX009 (ip), vehicle: saline with Tween-80 101 % of control | dose: 200.0 mg/kg/injection, schedule: Q01DX009 (ip), vehicle: saline with Tween-80 102 % of control | dose: 400.0 mg/kg/injection, schedule: Q01DX009 (ip), vehicle: saline with Tween-80 101 % of control

COc1ccc(SC2=C(N(C)C(C)=O)C(=O)c3ccccc3C2=O)cc1
inactive: dose: 7.5 mg/kg/injection, schedule: Q01DX009 (ip), vehicle: Klucel (hydroxypropylcellulose) (HPC) 89 % of control | dose: 15.0 mg/kg/injection, schedule: Q01DX001 (ip), vehicle: Klucel (hydroxypropylcellulose) (HPC) 93 % of control | dose: 15.0 mg/kg/injection, schedule: Q01DX009 (ip), vehicle: Klucel (hydroxypropylcellulose) (HPC) 92 % of control | dose: 30.0 mg/kg/injection, schedule: Q01DX001 (ip), vehicle: Klucel (hydroxypropylcellulose) (HPC) 88 % of control | dose: 30.0 mg/kg/injection, schedule: Q01DX009 (ip), vehicle: Klucel (hydroxypropylcellulose) (HPC) 89 % of control

CCCc1nc2c(=O)n(C3OC(CO)C(O)C3O)cnc2o1 (stereo unspecified)
inactive: dose: 100.0 mg/kg/injection, schedule: Q01DX005 (ip), vehicle: saline 95 % of control | dose: 200.0 mg/kg/injection, schedule: Q01DX005 (ip), vehicle: saline 91 % of control

Reference: PubChem BioAssay AID248 (DTP/NCI, 2004)
